Experimental data reported in paper PMC11154727, “Systematic Studies on the Anti-SARS-CoV-2 Mechanisms of Tea Polyphenol-Related Natural Products” (ACS Omega, 2024).
Read-outs that look alike come from different tables or passages of the source.

Experiments:
cathepsin L = molecular target: T1, cathepsin L (Homo sapiens, UniProt P07711); experiment: Cathepsin L inhibition (Cathepsin L Protease Assay Kit, fluorescence); type: biochemical
T1 construct: purchased Abcam
Protocol: Cathepsin L activity was determined using a commercial Cathepsin L Protease Assay Kit (Abcam, U.K.) in 20 μL reaction mixtures on a 384-well plate (PerkinElmer). Different concentrations of each inhibitor were added to the assay buffer supplied with dithiothreitol (DTT) in the kit, also containing 1% DMSO from the stock solutions of inhibitors. The fluorescence intensity was monitored for 30 min at excitation and emission wavelengths of 380/460 nm. The concentration-dependent inhibition curves of cathepsin L were fitted with the equation A(I) = A(0) x {1–[I/(I + IC50)]} using GraphPad Prism (v.9.4.0). The measurements were performed in triplicate to generate the averaged IC50 values and the standard deviations.

furin = molecular target: T2, furin (Homo sapiens, UniProt P09958); experiment: Furin inhibition (Furin Protease Assay Kit, fluorescence); type: biochemical
T2 construct: purchased BPS Bioscience 78040
Protocol: Following the protocol as described in ref ([35]) a commercial Furin Protease Assay Kit (BPS Bioscience, catalog#78040) was employed to assay furin activities. It was conducted in 20 μL reaction mixtures on a 384-well plate (PerkinElmer) comprising 0.25 ng/μL furin, 2 μM substrate, and different concentrations of inhibitors in the assay buffer with 1% DMSO from the stock solutions of compounds. Fluorescence intensity was monitored at excitation/emission wavelengths of 380/460 nm. The concentration-dependent inhibition curves of furin were fitted with the equation A(I) = A(0) x {1–[I/(I + IC50)]} using GraphPad Prism (v.9.4.0). All of the measurements were performed in triplicate to determine the averaged IC50 values and the standard deviations.

TMPRSS2 = molecular target: T3, TMPRSS2 (Homo sapiens, UniProt O15393); experiment: TMPRSS2 inhibition (Boc-Gln-Ala-Arg-AMC fluorogenic substrate); type: biochemical
T3 construct: The recombinant TMPRSS2 ectodomain (residues 109–492), excluding the transmembrane domain; His tag; made in house; host or cells: ExpiSf9 insect cells (baculovirus)

SARS-CoV-2 3CL^pro = SARS-CoV-2 3CL^pro (Severe acute respiratory syndrome coronavirus 2, UniProt P0DTD1); experiment: 3CLpro inhibition (fluorogenic peptide); type: biochemical
SARS-CoV-2 PL^pro = SARS-CoV-2 PL^pro (Severe acute respiratory syndrome coronavirus 2, UniProt P0DTD1); experiment: PLpro inhibition (proteolytic, deubiquitinating, deISGylation activities); type: biochemical
SARS-CoV-2 RdRp = SARS-CoV-2 RdRp (Severe acute respiratory syndrome coronavirus 2, UniProt P0DTD1); experiment: RdRp inhibition (nsp12/nsp7L8/nsp8 complex, ProFoldin kit); type: biochemical; details: triplicate
[1] = tested on: SARS-CoV-2 Delta virus (NTU92); experiment: microbe, parasite or virus in culture; type: cell-based
[2] = tested on: SARS-CoV-2 Omicron BA.5 (NTU280); experiment: Antiviral plaque reduction assay, Omicron BA.5 strain, Vero E6 cells; type: cell-based
[3] = Cytotoxicity, acid phosphatase (ACP) assay; type: cell-based; details: African green monkey
Protocol: (§1) Cytotoxicity of the compounds was determined using the acid phosphatase (ACP) assay. Vero E6 cells were seeded onto a 96-well culture plate at a concentration of 2 × 10^4 cells per well. Next day, the medium was removed, and each well was washed once with PBS before adding DMEM containing 2% FBS and different concentrations of test compounds. After 3 days of incubation at 37 °C, the medium was removed, and each well was washed once with PBS. Next, a buffer containing 0.1 M sodium acetate (pH = 5.0), 0.1% Triton X-100, and 5 mM p-nitrophenyl phosphate was added. After incubating at 37 °C for 30 min, 1 N NaOH was added to stop the reaction. The absorbance was measured using an ELISA reader (VERSAmax, Molecular Devices, Sunnyvale, CA) at a wavelength of 405 nm. The percentage of cell viability was calculated by using the following formula: Viability % = [ (At/As) × 100]%, where At and As represent the absorbance of the test compound and the solvent control, respectively. […] For each compound, the measurements were repeated at least 3 times to determine the averaged CC50 values and standard deviation.

wild-type SARS-CoV-2 = experiment: microbe, parasite or virus in culture; type: cell-based; details: Severe acute respiratory syndrome coronavirus 2, read-out: EC50 wild-type strain
recombinant ACE2 and RBD = details: at 60 μM; cited from earlier work
Vero E6 cells = experiment: Cytotoxicity, acid phosphatase (ACP) assay; type: cell-based; details: Vero E6, 3 days
Protocol: as §1

[4] = 1.3 nM TMPRSS2, 10 μM substrate, triplicate
[5] = substrate ISG15-AMC, third of three values, read-out: IC50 PL^pro, deISGylation activity
[6] = substrate Ub-AMC, second of three values, read-out: IC50 PL^pro, deubiquitinating activity
[7] = substrate Z-Arg-Leu-Arg-Gly-Gly-AMC, first of three values, read-out: IC50 PL^pro, proteolytic activity
[8] = Severe acute respiratory syndrome coronavirus 2, Vero C1008, Delta strain, plaque reduction, Vero E6, entry treatment, read-out: EC50 δ
[9] = Severe acute respiratory syndrome coronavirus 2, Vero C1008, Omicron BA.5, plaque reduction, Vero E6, read-out: EC50 ο BA.5 (converted)
[10] = 35 nM 3CL^pro, 6 μM substrate, read-out: IC50 3CL^pro
[11] = one entry for PL^pro, the three activities not told apart, read-out: IC50 PL^pro

T3 sequence (O15393 109-492 S251D/R252D/Q253D/S254D/R255K limits assumed): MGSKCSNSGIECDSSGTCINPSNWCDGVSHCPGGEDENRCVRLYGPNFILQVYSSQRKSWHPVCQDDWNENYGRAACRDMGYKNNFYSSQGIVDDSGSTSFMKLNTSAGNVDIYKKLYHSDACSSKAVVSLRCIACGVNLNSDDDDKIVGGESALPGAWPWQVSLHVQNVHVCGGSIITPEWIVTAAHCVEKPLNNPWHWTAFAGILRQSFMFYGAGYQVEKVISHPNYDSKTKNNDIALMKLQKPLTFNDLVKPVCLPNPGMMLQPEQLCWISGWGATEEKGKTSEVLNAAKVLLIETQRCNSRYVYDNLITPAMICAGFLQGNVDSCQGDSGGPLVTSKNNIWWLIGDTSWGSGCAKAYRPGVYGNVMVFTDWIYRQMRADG
T1 sequence (P07711 114-333): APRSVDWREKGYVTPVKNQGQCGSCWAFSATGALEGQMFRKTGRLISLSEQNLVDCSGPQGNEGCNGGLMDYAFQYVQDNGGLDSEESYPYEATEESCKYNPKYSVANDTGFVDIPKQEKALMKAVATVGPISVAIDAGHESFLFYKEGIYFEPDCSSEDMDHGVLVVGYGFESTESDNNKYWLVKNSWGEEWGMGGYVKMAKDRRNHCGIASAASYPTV
T2 sequence (P09958 108-794): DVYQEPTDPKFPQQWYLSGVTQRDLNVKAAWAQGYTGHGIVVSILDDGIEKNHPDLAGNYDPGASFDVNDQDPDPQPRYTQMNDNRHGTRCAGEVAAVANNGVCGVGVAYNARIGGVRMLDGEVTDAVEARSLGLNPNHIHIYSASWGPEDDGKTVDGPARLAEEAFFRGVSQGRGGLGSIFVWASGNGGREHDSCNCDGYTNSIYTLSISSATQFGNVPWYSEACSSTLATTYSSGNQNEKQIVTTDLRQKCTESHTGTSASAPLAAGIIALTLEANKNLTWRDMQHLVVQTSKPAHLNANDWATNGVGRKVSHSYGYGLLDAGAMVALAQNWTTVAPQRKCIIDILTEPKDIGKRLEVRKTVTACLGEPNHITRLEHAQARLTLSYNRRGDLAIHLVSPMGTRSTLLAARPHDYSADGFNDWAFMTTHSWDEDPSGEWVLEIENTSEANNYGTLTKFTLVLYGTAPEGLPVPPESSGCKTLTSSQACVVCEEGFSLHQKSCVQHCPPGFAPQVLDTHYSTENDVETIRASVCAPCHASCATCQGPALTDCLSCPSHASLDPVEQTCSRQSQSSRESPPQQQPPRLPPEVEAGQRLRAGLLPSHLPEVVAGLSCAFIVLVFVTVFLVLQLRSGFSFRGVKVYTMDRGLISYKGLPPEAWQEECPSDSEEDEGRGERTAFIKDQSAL

Compound	IC50 (cathepsin L; triplicate, mean ± SD)	IC50 (furin; triplicate, mean ± SD)	IC50 (TMPRSS2; [4])	IC50 (SARS-CoV-2 PL^pro; [5])	IC50 (SARS-CoV-2 PL^pro; [6])	IC50 (SARS-CoV-2 PL^pro; [7])	IC50 (SARS-CoV-2 RdRp)	EC50 [1, 8]	EC50 [2, 9]	IC50 (SARS-CoV-2 3CL^pro; [10])	IC50 (SARS-CoV-2 PL^pro; [11])	CC50 at 3 days [3]	further results
Oc1cc(O)c2c(c1)OC(c1ccc(O)c(O)c1)C(O)C2 (stereo not shown) [catechin]	> 100 µM	> 100 µM	> 100 µM	17.8 ± 2.2 µM	24.6 ± 3.3 µM	18.7 ± 3.5 µM	> 100 µM	> 10 µM	> 10 µM	–	–	–	IC50 (SARS-CoV-2 3CL^pro): > 100 µM; inhibition against 3CL^pro (SARS-CoV-2 3CL^pro; in words): no inhibition; inhibition of Delta SARS-CoV-2 ([1]; at 10 μM): did not inhibit; CC50 at 3 days ([3]; Vero E6 cells, Vero E6, 3 days, read-out: CC50): 107 µM
O=C(O[C@@H]1Cc2c(O)cc(O)cc2O[C@@H]1c1cc(O)c(=O)c2c(O)c(O)cc([C@H]3Oc4cc(O)cc(O)c4C[C@H]3O)c2c1)c1cc(O)c(O)c(O)c1 [theaflavin-3-gallate]	> 100 µM	36.7 ± 5.7 µM	48.7 ± 3 µM	–	–	–	> 100 µM	0.4 µM	0.4 µM	8.8 ± 0.8 µM	> 100 µM	> 100 µM	–
O=C(O[C@@H]1Cc2c(O)cc(O)cc2O[C@@H]1c1cc(O)c(=O)c2c(O)c(O)cc([C@H]3Oc4cc(O)cc(O)c4C[C@H]3OC(=O)c3cc(O)c(O)c(O)c3)c2c1)c1cc(O)c(O)c(O)c1 [TF3, theaflavin-3,3′-digallate]	–	–	–	–	–	–	–	–	–	–	–	> 100 µM	EC50 ([1]; Severe acute respiratory syndrome coronavirus 2, Vero C1008): 0.2 µM; EC50 ([2]; Severe acute respiratory syndrome coronavirus 2, Vero C1008, read-out: EC50 ο BA.5): 0.2 µM; EC50 (wild-type SARS-CoV-2): 0.3 µM; inhibition of the interaction between recombinant ACE2 and RBD (recombinant ACE2 and RBD): effectively inhibiting
O=C(O[C@@H]1Cc2c(O)cc(O)cc2O[C@@H]1c1cc(O)c(=O)c2c(O)c(O)c(O)cc2c1)c1cc(O)c(O)c(O)c1 [epitheaflagallin-3-O-gallate]	> 100 µM	55 ± 6.5 µM	35.3 ± 2.7 µM	–	–	–	> 100 µM	0.5 ± 0.1 µM	0.6 µM	31.2 ± 2.6 µM	> 100 µM	109 ± 45.3 µM	–
O=c1c(O)cc([C@H]2Oc3cc(O)cc(O)c3C[C@H]2O)cc2c([C@H]3Oc4cc(O)cc(O)c4C[C@H]3O)cc(O)c(O)c12 [theaflavin]	11.1 ± 1.1 µM	> 100 µM	> 100 µM	11.2 ± 1.3 µM	10.6 ± 0.9 µM	9.9 ± 0.9 µM	40.2 ± 2.3 µM	7.4 ± 0.1 µM	2.2 µM	16.1 ± 2.5 µM	–	66.4 ± 3.2 µM	–
proanthocyanidin	–	–	–	7.3 ± 0.6 µM	3.3 ± 0.4 µM	2.4 ± 0.3 µM	23.4 ± 1.3 µM	–	–	–	–	–	IC50 (cathepsin L): > 100 µM; IC50 (furin): > 100 µM; IC50 (TMPRSS2): 47 ± 4.6 µM; IC50 (SARS-CoV-2 3CL^pro; read-out: IC50 3CL^pro): 18.4 ± 1.1 µM; EC50 ([1]; Delta strain, plaque reduction, Vero E6, entry treatment, read-out: EC50 δ): 0.5 ± 0.1 µM; EC50 ([2]; Omicron BA.5, plaque reduction, Vero E6, read-out: EC50 ο BA.5 (converted)): 0.2 µM; CC50 (Vero E6 cells): > 100 µM
O=C(O[C@@H]1Cc2c(O)cc(O)cc2O[C@@H]1c1cc(O)c(O)c2c(=O)c(O)cc([C@H]3Oc4cc(O)cc(O)c4C[C@H]3O)cc12)c1cc(O)c(O)c(O)c1 [theaflavin-3′-gallate]	51.1 ± 2.2 µM	58.5 ± 6.4 µM	6.2 ± 0.6 µM	–	–	–	23.2 ± 0.4 µM	0.8 ± 0.1 µM	0.4 µM	6.7 ± 0.8 µM	> 100 µM	69.9 ± 12.9 µM	–
